Assays:
rat [1] = conditions: Sub-acute repeat dose toxicity, sprague dawley, Oral, Gavage/Intubation, dose end: 29 day, group: systemic
dog [2] = conditions: Subchronic oral toxicity in nonrodent, beagle, Gavage/Intubation, dose end: 90 day, group: systemic
rabbit = conditions: Sub-acute repeat dose toxicity; new zealand white; Oral; Gavage/Intubation; dose end: 5 day; group: systemic; systemic / in life observation / body weight / body weight + systemic / in life observation / clinical signs / altered breathing rate + …
dog [3] = conditions: Sub-acute repeat dose toxicity; beagle; Oral; Gavage/Intubation; dose end: 5 day; group: systemic; systemic / in life observation / clinical signs / abnormal feces + systemic / in life observation / clinical signs / emesis
dog [4] = conditions: Sub-acute repeat dose toxicity, beagle, Oral, Gavage/Intubation, dose end: 5 day, group: systemic
dog [5] = conditions: Sub-acute repeat dose toxicity; beagle; Oral; Gavage/Intubation; dose end: 29 day; group: systemic; systemic / clinical chemistry / hepatic mixed function oxidase (mfo) assay / hepatic mixed function oxidase (mfo) assay + systemic / in life…
rat [6] = conditions: Sub-acute repeat dose toxicity; sprague dawley; Oral; Gavage/Intubation; dose end: 9 day; group: systemic; systemic / in life observation / body weight / body weight gain + systemic / in life observation / food consumption / food consumption
mouse = conditions: Combined chronic toxicity/carcinogenicity, b6c3f1, Oral, Gavage/Intubation, dose end: 103 week, group: systemic
rat [7] = conditions: Combined chronic toxicity/carcinogenicity, fischer, Oral, Gavage/Intubation, dose end: 103 week, group: systemic
rat [8] = conditions: Prenatal developmental toxicity study; sprague dawley; Oral; Gavage/Intubation; dose end: 19 GD; group: maternal; systemic / in life observation / body weight / body weight gain + systemic / in life observation / food consumption / food consumption + …
rat [9] = conditions: Peri- and post-natal toxicity study (Segment III), sprague dawley, Oral, Gavage/Intubation, dose end: 40 PND
[10] = systemic / clinical chemistry / 5' nucleotidase / 5' nucleotidase + systemic / clinical chemistry / albumin / albumin + systemic / clinical …
[11] = systemic / clinical chemistry / cholesterol / cholesterol + systemic / organ weight / liver / absolute + systemic / pathology microscopic / …
[12] = systemic / in life observation / clinical signs / abnormal feces + systemic / organ weight / liver / absolute + systemic / pathology …
[13] = systemic / in life observation / clinical signs / abnormal feces
[14] = systemic / in life observation / clinical signs / abnormal feces + systemic / in life observation / clinical signs / emesis
[15] = systemic / pathology microscopic / liver / vacuolization cytoplasmic
[16] = systemic / pathology microscopic / liver / vacuolization cytoplasmic + systemic / in life observation / body weight / body weight
[17] = systemic / pathology microscopic / blood / leukemia mononuclear + systemic / in life observation / body weight / body weight
[18] = group: maternal, reproductive / reproductive performance / estrous cycle / corpora lutea
[19] = group: parental, systemic / organ weight / liver / absolute + systemic / organ weight / thyroid gland / absolute + systemic / pathology microscopic / ovary…
[20] = group: parental, systemic / organ weight / liver / absolute + systemic / pathology microscopic / ovary / follicle count + systemic / pathology microscopic / …

NC(=O)N(O)[C@@H]1C=C[C@H](Oc2cccc(Oc3ccc(F)cc3)c2)C1
LOAEL (rat [1]; [10]): > 400 mg/kg/day | NEL (rat [1]; [10]): 10 mg/kg/day | NOAEL (rat [1]; [10]): ≥ 400 mg/kg/day | LEL (rat [1]; [11]): 40 mg/kg/day | NEL (dog [2]; [11]): 5 mg/kg/day | LOAEL (dog [2]; [12]): > 125 mg/kg/day | NOAEL (dog [2]; [12]): ≥ 125 mg/kg/day | LEL (dog [2]; systemic / organ weight / liver / absolute): 25 mg/kg/day | LEL (rabbit): 400 mg/kg/day | LOAEL (rabbit): > 400 mg/kg/day | NEL (rabbit): 40 mg/kg/day | NOAEL (rabbit): ≥ 400 mg/kg/day | LEL (dog [3]): 250 mg/kg/day | LOAEL (dog [3]): > 500 mg/kg/day | NEL (dog [3]): < 250 mg/kg/day | NOAEL (dog [3]): ≥ 500 mg/kg/day | LEL (dog [4]; [13]): 5 mg/kg/day | NEL (dog [4]; [13]): < 5 mg/kg/day | LOAEL (dog [4]; [14]): > 125 mg/kg/day | NOAEL (dog [4]; [14]): ≥ 125 mg/kg/day | LEL (dog [5]): 125 mg/kg/day | LOAEL (dog [5]): > 125 mg/kg/day | NEL (dog [5]): 25 mg/kg/day | NOAEL (dog [5]): ≥ 125 mg/kg/day | LEL (rat [6]): 400 mg/kg/day | LOAEL (rat [6]): > 400 mg/kg/day | NEL (rat [6]): 200 mg/kg/day | NOAEL (rat [6]): ≥ 400 mg/kg/day

C=CCN=C=S [Allyl isothiocyanate]
LEL (mouse; [15]): 12 mg/kg/day | NEL (mouse; [15]): < 12 mg/kg/day | LOAEL (mouse; [16]): > 25 mg/kg/day | NOAEL (mouse; [16]): ≥ 25 mg/kg/day | LOAEL (rat [7]; systemic / in life observation / body weight / body weight): 25 mg/kg/day | NOAEL (rat [7]; systemic / in life observation / body weight / body weight + systemic / pathology microscopic / blood / leukemia mononuclear + systemic / …): 12 mg/kg/day | LEL (rat [7]; [17]): 12 mg/kg/day | NEL (rat [7]; [17]): < 12 mg/kg/day

CCCCOC(=O)c1ccc(O)cc1 [Butylparaben]
LEL (rat [8]): 1000 mg/kg/day | LOAEL (rat [8]): > 1000 mg/kg/day | NEL (rat [8]): 100 mg/kg/day | NOAEL (rat [8]): ≥ 1000 mg/kg/day | LEL (rat [9]; [18]): 62.5 mg/kg/day | LOAEL (rat [9]; [18]): > 1000 mg/kg/day | NEL (rat [9]; [18]): < 62.5 mg/kg/day | NOAEL (rat [9]; [18]): ≥ 1000 mg/kg/day | LOAEL (rat [9]; [19]): > 1000 mg/kg/day | NOAEL (rat [9]; [19]): ≥ 1000 mg/kg/day | LEL (rat [9]; [20]): 62.5 mg/kg/day | NEL (rat [9]; [20]): < 62.5 mg/kg/day

Source: EPA's ToxRefDB 2
